# Earlier results as cited in patent US6342251B1, “Compositions for nasal administration” (West Pharmaceutical Services Drug Delivery & Clinical …, priority 1997, dated 2002).
# Legend:
# [1] = patients, erectile dysfunction
# [2] = Parkinson's disease
structure (smiles),measurement,setting,value
"CN1CCc2cccc3c2[C@H]1Cc1ccc(O)c(O)c1-3 [apomorphine, (6aR)-5,6,6a, 7-tetrahydro-6-methyl-4H-dibenzo(d, e, g) quinoline-10, 11-diol hemihydrate]",side effects after nasal administration,[1],"unacceptable side effects such as yawning, nausea, vomiting, dizziness, blurred vision, diaphoresis, pallor and mild hypertension"
same,local reactions after intranasal administration,[2],transient nasal blockage and a burning sensation
